PubChem BioAssay (NCI)
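Five concentrations, 48 hours, 96-well plates. At the GI50, growth is halved. Definition used: TGI = concentration required for complete inhibition of growth.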

Tests used:
Assay in all cases: NCI tumour cell line growth inhibition, 48 h
786-0 renal = test system: 786-0 renal
A498 renal = test system: A498 renal
A549 NSCLC = test system: A549 NSCLC
ACHN renal = test system: ACHN renal
BT-549 breast = test system: BT-549 breast
CAKI-1 renal = test system: CAKI-1 renal
CCRF-CEM leukemia = test system: CCRF-CEM leukemia
COLO 205 colon = test system: COLO 205 colon
DU-145 prostate = test system: DU-145 prostate
EKVX NSCLC = test system: EKVX NSCLC
HCC-2998 colon = test system: HCC-2998 colon
HCT-116 colon = test system: HCT-116 colon
HCT-15 colon = test system: HCT-15 colon
HL-60(TB) leukemia = test system: HL-60(TB) leukemia
HOP-62 NSCLC = test system: HOP-62 NSCLC
HOP-92 NSCLC = test system: HOP-92 NSCLC
HS 578T breast = test system: HS 578T breast
HT29 colon = test system: HT29 colon
IGROV1 ovarian = test system: IGROV1 ovarian
K-562 leukemia = test system: K-562 leukemia
KM12 colon = test system: KM12 colon
LOX IMVI melanoma = test system: LOX IMVI melanoma
M14 melanoma = test system: M14 melanoma
MALME-3M melanoma = test system: MALME-3M melanoma
MCF7 breast = test system: MCF7 breast
MDA-MB-231 breast = test system: MDA-MB-231 breast
MDA-MB-435 = test system: MDA-MB-435
MOLT-4 leukemia = test system: MOLT-4 leukemia
NCI-H226 lung = test system: NCI-H226 lung
NCI-H23 lung = test system: NCI-H23 lung
NCI-H460 lung = test system: NCI-H460 lung
NCI-H522 lung = test system: NCI-H522 lung
NCI/ADR-RES ovarian = test system: NCI/ADR-RES ovarian
OVCAR-3 ovarian = test system: OVCAR-3 ovarian
OVCAR-4 ovarian = test system: OVCAR-4 ovarian
OVCAR-5 ovarian = test system: OVCAR-5 ovarian
OVCAR-8 ovarian = test system: OVCAR-8 ovarian
PC-3 prostate = test system: PC-3 prostate
RPMI-8226 leukemia = test system: RPMI-8226 leukemia
RXF 393 renal = test system: RXF 393 renal
SF-268 CNS = test system: SF-268 CNS
SF-295 CNS = test system: SF-295 CNS
SF-539 CNS = test system: SF-539 CNS
SK-MEL-2 melanoma = test system: SK-MEL-2 melanoma
SK-MEL-5 melanoma = test system: SK-MEL-5 melanoma
SK-OV-3 ovarian = test system: SK-OV-3 ovarian
SN12C renal = test system: SN12C renal
SNB-19 CNS = test system: SNB-19 CNS
SNB-75 CNS = test system: SNB-75 CNS
SR leukemia = test system: SR leukemia
SW-620 colon = test system: SW-620 colon
T-47D breast = test system: T-47D breast
TK-10 renal = test system: TK-10 renal
U251 CNS = test system: U251 CNS
UACC-257 melanoma = test system: UACC-257 melanoma
UACC-62 melanoma = test system: UACC-62 melanoma
UO-31 renal = test system: UO-31 renal

For `COc1cc(-c2nccn2-c2ccc3ccccc3c2)cc(OC)c1OC`, the GI50 (786-0 renal) was 56.4 nM, the TGI (786-0 renal) was 12500 nM and the GI50 (A498 renal) was 77.8 nM. The TGI (A498 renal) was 1360 nM, the GI50 (A549 NSCLC) was 740 nM and the TGI (A549 NSCLC) was greater than 65500 nM. It also gave a GI50 (ACHN renal) of 2590 nM, a TGI (ACHN renal) of 49600 nM and a GI50 (BT-549 breast) of 99.5 nM. For the same compound, the TGI (BT-549 breast) was 15600 nM, the GI50 (CAKI-1 renal) was less than 26.8 nM and the TGI (CAKI-1 renal) was 47000 nM. For the same compound, the GI50 (CCRF-CEM leukemia) was 48 nM, the TGI (CCRF-CEM leukemia) was 32500 nM and the GI50 (COLO 205 colon) was 40.2 nM. It also gave a TGI (COLO 205 colon) of 2440 nM, a GI50 (DU-145 prostate) of 84.4 nM and a TGI (DU-145 prostate) greater than 32300 nM. It also gave a GI50 (EKVX NSCLC) of 379 nM, a TGI (EKVX NSCLC) of 48100 nM and a GI50 (HCC-2998 colon) of less than 36.7 nM. It also gave a TGI (HCC-2998 colon) of 1660 nM, a GI50 (HCT-116 colon) of 40 nM and a TGI (HCT-116 colon) of 11700 nM. It also gave a GI50 (HCT-15 colon) of less than 22.6 nM, a TGI (HCT-15 colon) of 12600 nM and a GI50 (HL-60(TB) leukemia) of less than 17.6 nM. For the same compound, the TGI (HL-60(TB) leukemia) was 1330 nM, the GI50 (HOP-62 NSCLC) was 67.5 nM and the TGI (HOP-62 NSCLC) was 18300 nM. The GI50 (HOP-92 NSCLC) was 10100 nM, the TGI (HOP-92 NSCLC) was 31400 nM and the GI50 (HS 578T breast) was 66.8 nM. The TGI (HS 578T breast) was 71500 nM, the GI50 (HT29 colon) was less than 19.6 nM and the TGI (HT29 colon) was 14000 nM. It also gave a GI50 (IGROV1 ovarian) of 1110 nM, a TGI (IGROV1 ovarian) greater than 41200 nM and a GI50 (K-562 leukemia) of less than 15.6 nM. The TGI (K-562 leukemia) was greater than 32300 nM, the GI50 (KM12 colon) was less than 16.6 nM and the TGI (KM12 colon) was 18200 nM. It also gave a GI50 (LOX IMVI melanoma) of 1530 nM, a TGI (LOX IMVI melanoma) of 19000 nM and a GI50 (M14 melanoma) of 61.3 nM. It also gave a TGI (M14 melanoma) of 12700 nM, a GI50 (MALME-3M melanoma) of 16000 nM and a TGI (MALME-3M melanoma) of 47600 nM. It also gave a GI50 (MCF7 breast) of less than 13 nM, a TGI (MCF7 breast) of 15800 nM and a GI50 (MDA-MB-231 breast) of 333 nM. For the same compound, the TGI (MDA-MB-231 breast) was 22600 nM, the TGI (MDA-MB-435) was 51.1 nM and the GI50 (MOLT-4 leukemia) was 70.8 nM. It also gave a TGI (MOLT-4 leukemia) of 17000 nM, a GI50 (NCI-H226 lung) of 206 nM and a TGI (NCI-H226 lung) of 20300 nM. It also gave a GI50 (NCI-H23 lung) of 78.9 nM, a TGI (NCI-H23 lung) of 5530 nM and a GI50 (NCI-H460 lung) of less than 21.5 nM. For the same compound, the TGI (NCI-H460 lung) was 11700 nM, the GI50 (NCI-H522 lung) was less than 21.8 nM and the TGI (NCI-H522 lung) was 20400 nM. For the same compound, the TGI (NCI/ADR-RES ovarian) was 27.3 nM, the GI50 (OVCAR-3 ovarian) was less than 17.6 nM and the TGI (OVCAR-3 ovarian) was 1610 nM. The GI50 (OVCAR-4 ovarian) was 2040 nM, the TGI (OVCAR-4 ovarian) was 44600 nM and the GI50 (OVCAR-5 ovarian) was 469 nM. It also gave a TGI (OVCAR-5 ovarian) of 24200 nM, a GI50 (OVCAR-8 ovarian) of 489 nM and a TGI (OVCAR-8 ovarian) greater than 88000 nM. For the same compound, the GI50 (PC-3 prostate) was 45.3 nM, the TGI (PC-3 prostate) was greater than 100000 nM and the GI50 (RPMI-8226 leukemia) was 190 nM. The TGI (RPMI-8226 leukemia) was 17500 nM, the GI50 (RXF 393 renal) was 254 nM and the TGI (RXF 393 renal) was 28700 nM. The GI50 (SF-268 CNS) was 335 nM, the TGI (SF-268 CNS) was 18900 nM and the GI50 (SF-295 CNS) was less than 15.9 nM. It also gave a TGI (SF-295 CNS) of 15500 nM, a GI50 (SF-539 CNS) of 46.6 nM and a TGI (SF-539 CNS) of 625 nM. For the same compound, the GI50 (SK-MEL-2 melanoma) was 6200 nM, the TGI (SK-MEL-2 melanoma) was greater than 50300 nM and the GI50 (SK-MEL-5 melanoma) was less than 19.5 nM. For the same compound, the TGI (SK-MEL-5 melanoma) was 4450 nM, the GI50 (SK-OV-3 ovarian) was 990 nM and the TGI (SK-OV-3 ovarian) was 74000 nM. It also gave a GI50 (SN12C renal) of 666 nM, a TGI (SN12C renal) of 22600 nM and a GI50 (SNB-19 CNS) of 98.5 nM. It also gave a TGI (SNB-19 CNS) of 24300 nM, a GI50 (SNB-75 CNS) of 60.5 nM and a TGI (SNB-75 CNS) of 24800 nM. It also gave a GI50 (SR leukemia) of less than 14.7 nM, a TGI (SR leukemia) of 7060 nM and a GI50 (SW-620 colon) of 24 nM. The TGI (SW-620 colon) was 25200 nM, the GI50 (T-47D breast) was 17700 nM and the TGI (T-47D breast) was 94800 nM. The GI50 (TK-10 renal) was 2940 nM, the TGI (TK-10 renal) was greater than 87600 nM and the GI50 (U251 CNS) was 54.7 nM. It also gave a TGI (U251 CNS) of 16700 nM, a GI50 (UACC-257 melanoma) of 12900 nM and a TGI (UACC-257 melanoma) of 41300 nM. The GI50 (UACC-62 melanoma) was less than 17.7 nM, the TGI (UACC-62 melanoma) was 14500 nM and the GI50 (UO-31 renal) was 1650 nM. It also gave a TGI (UO-31 renal) greater than 62600 nM.
